pIC50: −log10 of the molar value.

The target in the assay is human MGL from HeLa cells (Homo sapiens (Human), UniProt Q99685). The experiment in a line: MGL in vitro activity assay ([glycerol-1,3-3H]-oleoyl glycerol hydrolysis, activated carbon filtration). In kind it is biochemical. The settings on record: 300 nM [Glycerol-1,3-3H]-oleoyl glycerol, one hour. The essentials: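 Activity measured as tritium in the flow-through after activated carbon filtration of a 1 h reaction containing 300 nM 3H-oleoyl glycerol, compound and HeLa-derived human MGL. Compounds screened at 10 μM; IC50 series start at an empirically chosen highest concentration.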
Sequence of human MGL from HeLa cells (Q99685 whole entry): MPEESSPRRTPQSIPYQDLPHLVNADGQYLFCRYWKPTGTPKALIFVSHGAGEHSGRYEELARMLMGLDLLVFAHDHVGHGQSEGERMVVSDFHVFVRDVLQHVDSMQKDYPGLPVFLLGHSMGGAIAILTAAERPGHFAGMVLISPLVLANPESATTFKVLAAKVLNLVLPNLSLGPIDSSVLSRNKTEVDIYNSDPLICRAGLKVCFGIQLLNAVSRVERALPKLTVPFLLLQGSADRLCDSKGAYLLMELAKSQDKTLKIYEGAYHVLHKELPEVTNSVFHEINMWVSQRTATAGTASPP
For orientation: pIC50 means −log10 of the IC50, conventionally taken in molar units. Higher therefore signals a low IC50. Take `Cc1cc(OC2CC3(C2)CN(C(=O)[C@H]2C[C@@](C)(O)C2)C3)ccc1C(F)(F)F` [Example 247, ((1s,3s)-3-Hydroxy-3-methylcyclobutyl)(6-(3-methyl-4-(trifluoromethyl)phenoxy)-2-azaspiro[3.3]heptan-2-yl)methanone]: the pIC50 was 7.85.

The molecule `Cc1ccc(OC2CC3(C2)CN(C(=O)[C@H]2C[C@@](C)(O)C2)C3)cc1C(F)(F)F` [Example 248, ((1s,3s)-3-Hydroxy-3-methylcyclobutyl)(6-(4-methyl-3-(trifluoromethyl)phenoxy)-2-azaspiro[3.3]heptan-2-yl)methanone] gave a pIC50 of 6.94.

In turn, `Cc1cc(C(F)(F)F)ccc1OC1CC2(C1)CN(C(=O)[C@H]1C[C@@](C)(O)C1)C2` [Example 249, ((1s,3s)-3-Hydroxy-3-methylcyclobutyl)(6-(2-methyl-4-(trifluoromethyl)phenoxy)-2-azaspiro[3.3]heptan-2-yl)methanone] showed a pIC50 of 7.70.

`Cc1cccc(OC2CC3(C2)CN(C(=O)[C@H]2C[C@@](C)(O)C2)C3)c1C(F)(F)F` [Example 250, ((1s,3s)-3-Hydroxy-3-methylcyclobutyl)(6-(3-methyl-2-(trifluoromethyl)phenoxy)-2-azaspiro[3.3]heptan-2-yl)methanone]: the pIC50 is 7.46.

The molecule `CC(C)c1cccc(OC2CC3(C2)CN(C(=O)[C@H]2C[C@@](C)(O)C2)C3)c1C(F)(F)F` [Example 251, ((1s,3s)-3-Hydroxy-3-methylcyclobutyl)(6-(3-isopropyl-2-(trifluoromethyl)phenoxy)-2-azaspiro[3.3]heptan-2-yl)methanone] had a pIC50 of 8.13.

`Cc1c(OC2CC3(C2)CN(C(=O)[C@H]2C[C@@](C)(O)C2)C3)cccc1C(F)(F)F` [Example 252, ((1s,3s)-3-Hydroxy-3-methylcyclobutyl)(6-(2-methyl-3-(trifluoromethyl)phenoxy)-2-azaspiro[3.3]heptan-2-yl)methanone] gave a pIC50 of 7.33.

In the case of `CC(C)(C)c1cccc(OC2CCC3(CC2)CN(C(=O)[C@H]2C[C@@](C)(O)C2)C3)c1` [Example 257, (7-(3-(tert-Butyl)phenoxy)-2-azaspiro[3.5]nonan-2-yl)((1s,3s)-3-hydroxy-3-methylcyclobutyl)methanone], the pIC50 is 8.09.

As to `Cc1cc(C(F)(F)F)ccc1OC1CCC2(CC1)CN(C(=O)[C@H]1C[C@@](C)(O)C1)C2` [Example 258, ((1s,3s)-3-Hydroxy-3-methylcyclobutyl)(7-(2-methyl-4-(trifluoromethyl)phenoxy)-2-azaspiro[3.5]nonan-2-yl)methanone], the pIC50 is 9.70.

`Cc1ccc(OC2CCC3(CC2)CN(C(=O)[C@H]2C[C@@](C)(O)C2)C3)cc1C(F)(F)F` [Example 259, ((1s,3s)-3-Hydroxy-3-methylcyclobutyl)(7-(4-methyl-3-(trifluoromethyl)phenoxy)-2-azaspiro[3.5]nonan-2-yl)methanone] had a pIC50 of 8.52.

Molecule `CC(C)(C)c1ccc(OC2CCC3(CC2)CN(C(=O)[C@H]2C[C@@](C)(O)C2)C3)cc1` [Example 260, (7-(4-(tert-Butyl)phenoxy)-2-azaspiro[3.5]nonan-2-yl)((1s,3s)-3-hydroxy-3-methylcyclobutyl)methanone] gave a pIC50 of 8.00.

Consider `C[C@]1(O)C[C@@H](C(=O)N2CC3(CCC(Oc4ccc(C5CC5)cc4)CC3)C2)C1` [Example 261, (7-(4-Cyclopropylphenoxy)-2-azaspiro[3.5]nonan-2-yl)((1s,3s)-3-hydroxy-3-methylcyclobutyl)methanone], for which the pIC50 was 8.14.

Turning to `C[C@]1(O)C[C@@H](C(=O)N2CC3(CCC(Oc4ccc(OC(F)(F)F)cc4)CC3)C2)C1` [Example 262, ((1s,3s)-3-Hydroxy-3-methylcyclobutyl)(7-(4-(trifluoromethoxy)phenoxy)-2-azaspiro[3.5]nonan-2-yl)methanone], the negative-log IC50 (pIC50) is 8.49.

`C[C@]1(O)C[C@@H](C(=O)N2CC3(CCC(Oc4cccc(OC(F)(F)F)c4)CC3)C2)C1` [Example 263, ((1s,3s)-3-Hydroxy-3-methylcyclobutyl)(7-(3-(trifluoromethoxy)phenoxy)-2-azaspiro[3.5]nonan-2-yl)methanone] gave a pIC50 of 7.92.

With `C[C@]1(O)C[C@@H](C(=O)N2CC3(CCC(Oc4cccc(C5CC5)c4)CC3)C2)C1` [Example 264, (7-(3-Cyclopropylphenoxy)-2-azaspiro[3.5]nonan-2-yl)((1s,3s)-3-hydroxy-3-methylcyclobutyl)methanone], the pIC50 was 7.49.

Molecule `CC(C)c1ccccc1OC1CCC2(CC1)CN(C(=O)[C@H]1C[C@@](C)(O)C1)C2` [Example 265, ((1s,3s)-3-Hydroxy-3-methylcyclobutyl)(7-(2-isopropylphenoxy)-2-azaspiro[3.5]nonan-2-yl)methanone] had a pIC50 of 7.43. This pIC50 and that of the molecule before are within 0.2 log units of each other.

As to `COC1(c2cccc(C(C)C)c2)CCC2(CC1)CN(C(=O)[C@H]1C[C@@](C)(O)C1)C2` [Example 266, ((1s,3s)-3-Hydroxy-3-methylcyclobutyl)(7-(3-isopropylphenyl)-7-methoxy-2-azaspiro[3.5]nonan-2-yl)methanone], the pIC50 is 8.92.

`Cc1cc(C2CC3(C2)CN(C(=O)[C@H]2C[C@@](C)(O)C2)C3)cc(C(F)(F)F)c1` [Example 267, ((1s,3s)-3-Hydroxy-3-methylcyclobutyl)(6-(3-methyl-5-(trifluoromethyl)phenyl)-2-azaspiro[3.3]heptan-2-yl)methanone] showed a pIC50 of 7.19.

In the case of `Cn1ccc2cc(C3CC4(C3)CN(C(=O)[C@H]3C[C@@](C)(O)C3)C4)cnc21` [Example 268, ((1s,3s)-3-Hydroxy-3-methylcyclobutyl)(6-(1-methyl-1H-pyrrolo[2,3-b]pyridin-5-yl)-2-azaspiro[3.3]heptan-2-yl)methanone], the pIC50 was 5.62.

On to `Cn1ccc2ccc(C3CC4(C3)CN(C(=O)[C@H]3C[C@@](C)(O)C3)C4)nc21` [Example 269, ((1s,3s)-3-Hydroxy-3-methylcyclobutyl)(6-(1-methyl-1H-pyrrolo[2,3-b]pyridin-6-yl)-2-azaspiro[3.3]heptan-2-yl)methanone], for which the pIC50 was 6.29.

As to `COC1(Cc2ccccc2)CC2(CN(C(=O)[C@H]3C[C@@](C)(O)C3)C2)C1` [Example 270, (6-Benzyl-6-methoxy-2-azaspiro[3.3]heptan-2-yl)((1s,3s)-3-hydroxy-3-methylcyclobutyl)methanone], the pIC50 was 5.48. Compared with the last molecule, the pIC50 is 0.81 log units lower.

Turning to `C[C@]1(O)C[C@@H](C(=O)N2CC3(CC(Cc4ccccc4C4CC4)C3)C2)C1` [Example 271, (6-(2-Cyclopropylbenzyl)-2-azaspiro[3.3]heptan-2-yl)((1s,3s)-3-hydroxy-3-methylcyclobutyl)methanone], the negative logarithm of the IC50 (pIC50) was 8.44.

Molecule `C[C@]1(O)C[C@@H](C(=O)N2CC3(CC(Cc4ccc(OC5CC5)cc4)C3)C2)C1` [Example 272, (6-(4-Cyclopropoxybenzyl)-2-azaspiro[3.3]heptan-2-yl)((1s,3s)-3-hydroxy-3-methylcyclobutyl)methanone] had a pIC50 of 8.09.

Molecule `Cc1cc(F)ccc1CC1CC2(C1)CN(C(=O)[C@H]1C[C@@](C)(O)C1)C2` [Example 273, (6-(4-Fluoro-2-methylbenzyl)-2-azaspiro[3.3]heptan-2-yl)((1s,3s)-3-hydroxy-3-methylcyclobutyl)methanone] gave a pIC50 of 8.00.

`COc1ccc(CC2CC3(C2)CN(C(=O)[C@H]2C[C@@](C)(O)C2)C3)c(C(F)F)c1` [Example 274, (6-(2-(Difluoromethyl)-4-methoxybenzyl)-2-azaspiro[3.3]heptan-2-yl)((1s,3s)-3-hydroxy-3-methylcyclobutyl)methanone] showed a pIC50 of 8.21.

In turn, `COc1cc(C(F)F)ccc1CC1CC2(C1)CN(C(=O)[C@H]1C[C@@](C)(O)C1)C2` [Example 275, (6-(4-(Difluoromethyl)-2-methoxybenzyl)-2-azaspiro[3.3]heptan-2-yl)((1s,3s)-3-hydroxy-3-methylcyclobutyl)methanone] gave a pIC50 of 9.36. This pIC50 is 1.15 log units higher than that of the molecule before.

`COc1cc(CC2CC3(C2)CN(C(=O)[C@H]2C[C@@](C)(O)C2)C3)ccc1C(F)(F)F` [Example 276, ((1s,3s)-3-Hydroxy-3-methylcyclobutyl)(6-(3-methoxy-4-(trifluoromethyl)benzyl)-2-azaspiro[3.3]heptan-2-yl)methanone] gave a pIC50 of 9.00.

In the case of `Cc1ccc(CC2CC3(C2)CN(C(=O)[C@H]2C[C@@](C)(O)C2)C3)nc1C(F)(F)F` [Example 277, ((1s,3s)-3-Hydroxy-3-methylcyclobutyl)(6-((5-methyl-6-(trifluoromethyl)pyridin-2-yl)methyl)-2-azaspiro[3.3]heptan-2-yl)methanone], the pIC50 is 7.74.

In turn, `Cc1nc(CC2CC3(C2)CN(C(=O)[C@H]2C[C@@](C)(O)C2)C3)ccc1C(F)(F)F` [Example 278, ((1s,3s)-3-Hydroxy-3-methylcyclobutyl)(6-((6-methyl-5-(trifluoromethyl)pyridin-2-yl)methyl)-2-azaspiro[3.3]heptan-2-yl)methanone] had a pIC50 of 7.80.

On to `Cc1ccc(CC2CC3(C2)CN(C(=O)[C@H]2C[C@@](C)(O)C2)C3)nc1OC(C)C` [Example 279, ((1s,3s)-3-Hydroxy-3-methylcyclobutyl)(6-((6-isopropoxy-5-methylpyridin-2-yl)methyl)-2-azaspiro[3.3]heptan-2-yl)methanone], for which the pIC50 is 8.00. This pIC50 lies 0.20 log units higher than the previous one.

In turn, `Cc1nc(CC2CC3(C2)CN(C(=O)[C@H]2C[C@@](C)(O)C2)C3)ccc1OC(F)F` [Example 280, (6-((5-(Difluoromethoxy)-6-methylpyridin-2-yl)methyl)-2-azaspiro[3.3]heptan-2-yl)((1s,3s)-3-hydroxy-3-methylcyclobutyl)methanone] showed a pIC50 of 7.43.

`COc1nc(CC2CC3(C2)CN(C(=O)[C@H]2C[C@@](C)(O)C2)C3)ccc1C(F)(F)F` [Example 281, ((1s,3s)-3-Hydroxy-3-methylcyclobutyl)(6-((6-methoxy-5-(trifluoromethyl)pyridin-2-yl)methyl)-2-azaspiro[3.3]heptan-2-yl)methanone] showed a negative-log IC50 (pIC50) of 8.92. This pIC50 is 1.49 log units higher than that of the molecule before.

Values taken from patent US11802111B2, “Cyclobutyl amide monoacylglycerol lipase modulators” (Janssen Pharmaceutica NV, priority 2020, dated 2023).
